Test results as given in patent US7045147B1, “Controlled release peroral compositions of levosimendan” (Orion Corporation, priority 1998, dated 2006).

Legend:
[1] = Steady-state clinical study: plasma levels of levosimendan and metabolite (II) after 7 days levosimendan administration; type: in vivo; conditions: human, po, 1 mg levosimendan orally three times a day for 7 days, healthy volunteers, formulation as Formulation 3 except 1 mg levosimendan and Avicel PH-200 51.0 mg, N 14, read-out: Mean plasma level of levosimendan (day 7)
Protocol: The steady-state plasma level for metabolite (II) can be measured for any composition by administering the composition of levosimendan to a volunteer or group of volunteers once or several times a day for several days until a steady state level of (II) is reached. The plasma levels of the active metabolite (II) can then be measured according to the procedure described in detail in Example 2.
The active metabolite (II) is added in 20 μl of phosphate buffer, pH 7.2 to 0.5 ml of analyte-free plasma. The amounts of analyte added are 0.100, 0.250, 0.500, 1.00, 2.50, 3.75, 5.00, 7.50 and 12.5 ng. After being vortexed for 20 seconds and left standing for 10 minutes, the 2500 pg of internal standard (R)-N-[4-(1,4,5,6-tetrahydro-4-ethyl-6-oxo-3-pyridazinyl)phenyl]acetamide is added in 20 μl of phosphate buffer, pH 7.2. The mixture is vortexed for 1 minute and left standing for 15 minutes. The calibration samples are alkalised with 50 μl of 0.1 M sodium hydroxide and vortexed for 20 seconds. […]
Determinations are carried out by using the selected reaction monitoring technique. […] The selected reaction monitoring chromatograms are recorded using a PE Sciex API 300 Data System.
Peak area ratios of analyte and its internal standard are plotted against concentrations. […] The limit of quantitation is 0.200 ng/ml. […]

[2] = cited from earlier work
[3] = Pharmacokinetics of levosimendan and its active metabolite (elimination half-life, absorption); type: in vivo, human; conditions: active first-pass metabolite of levosimendan
From the text: The hemodynamic effects of levosimendan in man are described in Sundberg, S. et al., Am. J. Cardiol., 1995; 75: 1061-1066. Pharmacokinetics of levosimendan in man after i.v. and oral dosing is described in Sandell, E. -P. et al., J. Cardiovasc. Pharmacol., 26(Suppl. I), S57-S62, 1995. The use of levosimendan in the treatment of myocardial ischemia is described in WO 93/21921. Clinical studies have confirmed the beneficial effects of levosimendan in heart failure patients.
Firstly, the elimination half-life of levosimendan in human is short, about 1 h. Therefore, using conventional immediate release oral formulations levosimendan should be administered frequently during the day. Secondly, the gastrointestinal absorption of levosimendan is rapid. Therefore, using immediate release oral formulations high peak plasma concentrations of levosimendan are reached rapidly and abruptly, typically within 1 hour. High plasma concentrations of levosimendan tend to increase heart rate which is an undesired effect in heart failure patients.
The discovery of the active metabolite and its formation route makes it now possible to design controlled release preparations which show a reduced occurrence of undesired effects and which are well suited for the treatment of heart failure patients.

CC1CC(=O)NN=C1c1ccc(NN=C(C#N)C#N)cc1 (single isomer, unassigned; (-)) [Levosimendan, (−)-[[4-(1,4,5,6-tetrahydro-4-methyl-6-oxo-3-pyridazinyl)phenyl]hydrazono]propanedinitrile]
concentration at 1 h ([1]; 1 h after the last dose (day 7)): 15.4 ng/mL
concentration at 4 h ([1]; 4 h after the last dose (day 7)): 8.9 ng/mL
time to reach peak plasma concentrations ([2]; immediate release oral formulations): ≤ 1 h
elimination half-life ([2]; in human): about 1 h

CC(=O)Nc1ccc(C2=NNC(=O)C[C@H]2C)cc1 [Metabolite (II), (R)-N-[4-(1,4,5,6-tetrahydro-4-methyl-6-oxo-3-pyridazinyl)phenyl]acetamide]
elimination half-life compared with levosimendan [3]: substantially longer than that of levosimendan
